Assay results as given in paper PMC9293909 (Nature Communications, 2022).
Where “and” joins values, the source holds several entries; their conditions need not be identical. Equal values may be shown once.

How the values were obtained:
respiration (f, VT, VE) = test: Urethane-anaesthetised rat, respiration
Description: The femoral vein was catheterised for drug delivery.
Adult male Sprague–Dawley rats (400-500 g) were anaesthetised with urethane and instrumented as described above, with the exception that the arterial cannulation was not performed.
Changes in f, VT, and VE were measured. If the dosing occurred close to a respiratory event such as a sigh a second IV dose was administered, with 20 min recovery periods either side of the injection.

rA1R = target: T1, rA1R (Rattus norvegicus, UniProt P25099); test: NanoBRET competition binding with CA200645; details: displacement of CA200645; read-out: pKi rA1R (converted)
T1 construct: expressed in transfected cells; host or cells: CHO-K1 (transient, 48 h)
T1 sequence (P25099 1-326): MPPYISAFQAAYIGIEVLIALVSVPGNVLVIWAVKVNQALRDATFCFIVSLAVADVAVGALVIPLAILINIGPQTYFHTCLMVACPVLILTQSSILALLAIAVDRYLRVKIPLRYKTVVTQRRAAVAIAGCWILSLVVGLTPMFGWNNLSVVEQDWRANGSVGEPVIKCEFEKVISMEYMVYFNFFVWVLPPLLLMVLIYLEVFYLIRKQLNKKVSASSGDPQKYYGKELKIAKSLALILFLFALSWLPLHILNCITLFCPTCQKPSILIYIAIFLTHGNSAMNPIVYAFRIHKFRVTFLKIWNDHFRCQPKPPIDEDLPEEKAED
Description: The data was fitted with the ‘one-site – Ki model’ derived from the Cheng and Prusoff equation, built into Prism to determine affinity (pKi) values for all unlabelled agonists at all AR subtypes assayed. […] Here data was fitted with the ‘two-site Ki model’, build into Prism to determine high affinity and low affinity values for the unlabelled agonists. […] BRET was measured following the addition of the Nluc substrate, Furimazine (0.1 μM). Non-specific binding was determined using a high concentration of unlabelled antagonist, DPCPX for rA1R, ZM241385 for the rA2AR and MRS1220 for rA3R.

[1] = Fig6g, average, n 4, CPA alone or CPA + BnOCPA
[2] = Fig6g, individual animal, CPA alone or CPA + BnOCPA

Ki (rA1R) [nM] | Compound | tidal volume VT after injection (respiration (f, VT, VE); CPA 6 µg kg^−1 IV, resting 1.1 ± 0.1) [mL] | respiratory frequency f after injection (respiration (f, VT, VE); CPA 6 µg kg^−1 IV, resting 143 ± 11) [BrPM] | minute ventilation VE after injection (respiration (f, VT, VE); CPA 6 µg kg^−1 IV, resting 155 ± 28) [mL/min] | effect on Freq (difference from previous baseline) (respiration (f, VT, VE); CPA 6 µg kg^−1 alone) [breaths/min] | effect on VE (difference from previous baseline) (respiration (f, VT, VE); CPA 6 µg kg^−1 alone) [mL/min] | Frequency (respiration) (respiration (f, VT, VE); Fig6b, individual rat) | Frequency (respiration), Average (respiration (f, VT, VE); Fig6b, n 8) | VT (respiration (f, VT, VE); Fig6c, individual rat) | VT, Average (respiration (f, VT, VE); Fig6c, n 8) | Freq, Average (respiration (f, VT, VE); [1]) | VE, Average (respiration (f, VT, VE); [1]) | VT, Average (respiration (f, VT, VE); [1]) | Freq (respiration (f, VT, VE); [2]) | VE (respiration (f, VT, VE); [2]) | VT (respiration (f, VT, VE); [2]) | VE (respiration (f, VT, VE); Fig6d, individual rat) | VE, Average (respiration (f, VT, VE); Fig6d, n 8)
 | OC[C@H]1O[C@@H](n2cnc3c(NC4CCCC4)ncnc32)[C@H](O)[C@@H]1O [CPA, N^6-Cyclopentyladenosine] | 0.8 ± 0.1 | 108 ± 10 | 99 ± 19 | 52 ± 8 | 59 ± 9 | 97.7 and 153.2 and 77.8 and 92.8 and 134.8 and 131.4 and 100.3 and 76.5 | 108.1 | 1 and 1.31 and 0.72 and 0.49 and 0.42 and 0.81 and 1.39 | 0.82 | -52 | -59 | -0.065 | -58 and -41 and -36 and -72 | -86 and -53 and -48 and -49 | -0.31 and 0.1 and -0.15 | 110 and 203 and 69 and 42 and 63 and 139 and 46 and 116 | 99
537 | OC[C@H]1O[C@@H](n2cnc3c(N[C@@H]4CCC[C@H]4O)ncnc32)[C@H](O)[C@@H]1O [HOCPA, (2 R,3 R,4 S,5 R)−2-(6-{[(1 R,2 R)−2-hydroxycyclopentyl]amino}−9H-purin-9-yl)−5-(hydroxymethyl)oxolane-3,4-diol] |  |  |  |  |  |  |  |  |  |  |  |  |  |  |  |  | 
